Key:
Assay type in all cases: cell-based
[1] = test system: mouse lung endothelial cells (MLEC); experiment: NO analysis (nitrite chemiluminescence); conditions: physiological doses; 24 hours
Protocol: To measure nitric oxide (NO) production, conditioned medium from mouse lung endothelial cells (MLEC) was examined at 24 hours after treatment with MMI-0100 ([…]; SEQ ID NO: 1). The medium was processed for the measurement of nitrite (NO2) by a NO-specific chemiluminescence analyzer (Sievers) as previously described (Muto, A. et al., J. Exp. Med., 2011, 208(3): 561-575, incorporated herein by reference in its entirety.).

[2] = test system: human endothelial cell (EC; HAEC); experiment: MTS cell proliferation assay, human endothelial cells
Protocol: The CellTiter 96® AQueous Non-Radioactive Cell Proliferation Assay (Promega) was used to assess drug effects on cell proliferation according to the manufacturer's instructions. Briefly, HAECs and HASMCs from early passages were grown to 80-90% confluence in 25 cm^2 tissue culture flasks in a 37° C./5% CO2 incubator prior to harvest. 200 μl of each type of cell suspension (at 20,000 cells/cm^2) was seeded onto separate 96-well plates to yield an approximate 60% confluence per well. Cells were allowed to adhere to the plate surface overnight, followed by addition of 20 ng/ml of TNF-α to stimulate production of inflammatory agents. After a 4-6 hour incubation period, MMI-0100 peptide drug ([…]; SEQ ID NO: 1) was added and cells incubated for another 20-24 hours. Each well was then supplemented with 100 μl of fresh medium and 200 μl of CellTiter 96® AQueous One Solution Reagent and incubated for an additional 1.5-2 hours prior to measuring absorbance of each well at 490 nm with a SoftMax®-equipped plate reader.
In order to determine the effect of pharmacological doses of MMI-0100 ([…]; SEQ ID NO: 1) on human endothelial cell (EC) and smooth muscle cell (SMC) proliferation, human EC and SMC cultures were treated with three concentrations (0.25 mM, 0.5 mM, and 1 mM) of MMI-0100 ([…] (SEQ ID NO: 1)) following pre-treatment with TNF-α.

[3] = test system: immortalized human pleural mesothelial cells (ATCC CRL-9444); experiment: TNF-α-induced IL-6 expression in mesothelial cells (ELISA)
Text: In order to examine the efficacy of MMI-0100 ([…]; SEQ ID NO: 1) in inhibiting the production of inflammatory cytokines, an inflammatory response was triggered in vitro by applying TNF-α to immortalized human pleural mesothelial cells (ATCC CRL-9444). A mesothelial cell is a cell type that forms a monolayer of specialized pavement-like cells (mesothelium) that lines the body's abdominal cavities and internal organs. The primary function of this layer, the mesothelium, is to provide a slippery, non-adhesive, and protective surface. Mesothelial cells also are involved in transport of fluid and cells across the peritoneal (abdominal) cavities, antigen presentation, inflammation, tissue repair, coagulation, and tumor cell adhesion. It is well known that mesothelial cells play important role in the peritoneal inflammatory response. In response to bacterial products and macrophage-derived inflammatory cytokines (e.g., TNF-α), mesothelial cells produce Interleukin-1 (IL-1), Interleukin-6 (IL-6), and Interleukin-8 (IL-8), thus amplifying the inflammatory signals and recruiting leukocytes into the infected abdominal cavity.
Expression of inflammatory cytokines was induced by applying 1 or 10 ng/ml of TNF-α to cultured mesothelial cells. Briefly, immortalized human pleural mesothelial cells (ATCC CRL-9444) were grown in Medium199 with Earle's BSS, 0.75 mM L-glutamine (Mediatech Inc., Manassas, Va.), 1.25 g/l sodium bicarbonate (Sigma), 3.3 nM epidermal growth factor (EGF) (MBL International, Woburn, Mass.), 40 nM hydrocortisone (Sigma), 870 nM insulin (MBL International), 20 mM HEPES (Sigma), trace elements mixture B (Mediatech Inc., Waltham, Mass.), 10% fetal bovine serum (FBS) (Hyclone), and 1% penicillin/streptomycin (Mediatech Inc., Waltham, Mass.). […] Human mesothelial cells were treated with two different concentrations (1 and 10 ng/mL) of TNF-α for 2, 6, 12, and 24 hours (data not shown). […] Without TNF-α stimulation, mesothelial cells made negligible amounts of IL-6. […] In subsequent experiments designed to determine whether the MMI-0100 peptide ([…]; SEQ ID NO: 1) could reduce TNF-α induced IL-6 expression, both 1 and 10 ng/mL of TNF-α were selected as stimuli. 10 ng/mL of TNF-α is regarded as more physiologically relevant for mesothelial cells.
Prior to cytokine and/or inhibitor treatment, cells were allowed to acclimate in serum-free media consisting of only Medium 199 with Earle's BSS, 0.75 mM L-glutamine, 1.25 g/l sodium bicarbonate, 20 mM HEPES, trace elements mixture B (Mediatech Inc., Waltham, Mass.), and 1% penicillin/streptomycin (Mediatech Inc., Waltham, Mass.) for 24 hours. After the adapting period, cytokines (TNF-α and IL-1β) with or without MMI-0100 peptide or Rottlerin (Tocris Bioscience, Ellisville, Mo.; IC50=5 μM) were added to the media in order to compare the efficacy of MMI-0100 ([…]; SEQ ID NO: 1) with that of Rottlerin. Specifically, serum-starved mesothelial cells were treated with two different concentrations (1000 μM or 3000 μM) of MMI-0100 ([…] (SEQ ID NO: 1)) at three different time points (6 hours, 12 hours, and 24 hours) using two different concentrations of TNF-α (1 ng/ml or 10 ng/ml) or using 1 ng/ml of IL-1β. Average concentration of IL-6 (pg/ml per 10^5 cells) at each time was determined by cytokine-specific ELISA.

YARAAARQARAKALARQLGVAA [MMI-0100]
Nitric oxide (NO) production [1]: not suppressed, and was even enhanced | EC proliferation compared to control (20 ng/ml TNF-α alone) ([2]; 0.25 mM MMI-0100): slightly increased | increase in EC proliferation compared to control (20 ng/ml TNF-α alone) ([2]; 0.5 mM MMI-0100): 30% | increase in EC proliferation compared to control (20 ng/ml TNF-α alone) ([2]; 1 mM MMI-0100): 11% | EC morphology, phase contrast images ([2]; 24 hours treatment): no obvious morphological changes | IL-6 expression ([3]; 1 ng/mL TNF-α, MMI-0100 1000 μM or 3000 μM): reduced IL-6 expression to the levels at or below the untreated baseline | IL-6 expression ([3]; 10 ng/mL TNF-α, 3000 μM MMI-0100, every time point (6, 12, 24 hours)): reduced IL-6 expression to the levels of the untreated baseline | IL-6 expression ([3]; 10 ng/mL TNF-α, MMI-0100): still effective
